# Source: ChEMBL document CHEMBL3885861, “Open TG-GATES”
# Species on record: Rattus norvegicus
# Assay: Open TG-GATES - Regimen: Single
# Type: toxicity, organism-based, Sprague-Dawley
# Set-up: regimen Single, gender Male, age 6 weeks
# Conditions: in vivo, po, 300 mg/kg, route gavage, dose level High; for APTT / Bas / Eos / Fbg / Hb / Ht / Lym / MCH / MCHC / MCV / Mono / Neu / PT / Plat / RBC / Ret / WBC: tissue Blood; for KIDNEY_L / KIDNEY_R / KIDNEY_TOTAL: tissue Kidney; for LIVER: tissue Liver; for A/G / ALP / ALT / AST / BUN / CRE / Ca / Cl / DBIL / GLC / IP / K / LDH / Na / PL / RALB / TBIL / TC / TG / TP / gamma-GTP: tissue Plasma
structure (smiles),measurement,setting,value
CCc1oc2ccccc2c1C(=O)c1cc(I)c(O)c(I)c1 [BENZIODARONE],TERMINAL_BW,3 h,211.6 g
same,APTT,3 h,17 s
same,Bas,3 h,0%
same,Eos,3 h,0.2%
same,Fbg,3 h,206 mg/dL
same,Hb,3 h,13 g/dL
same,Ht,3 h,39%
same,Lym,3 h,75.8%
same,MCH,3 h,21.6 pg
same,MCHC,3 h,33.3%
same,MCV,3 h,65 fL
same,Mono,3 h,7.4%
same,Neu,3 h,16.4%
same,PT,3 h,11.9 s
same,Plat,3 h,107 x10_4/uL
same,RBC,3 h,600.4 x10_4/ul
same,Ret,3 h,11.4%
same,WBC,3 h,93.8 x10_2/uL
same,KIDNEY_L,3 h,0.9 g
same,KIDNEY_R,3 h,1 g
same,KIDNEY_TOTAL,3 h,1.9 g
same,LIVER,3 h,10 g
same,A/G,3 h,2
same,ALP,3 h,893 IU/L
same,ALT,3 h,37.8 IU/L
same,AST,3 h,64.6 IU/L
same,BUN,3 h,16.4 mg/dL
same,CRE,3 h,0.6 mg/dL
same,Ca,3 h,10.5 mg/dL
same,Cl,3 h,102 meq/L
same,DBIL,3 h,0.056 mg/dL
same,GLC,3 h,230.8 mg/dL
same,IP,3 h,9.7 mg/dL
same,K,3 h,4.7 meq/L
same,LDH,3 h,102.8 IU/L
same,Na,3 h,139 meq/L
same,PL,3 h,133.6 mg/dL
same,RALB,3 h,3.5 g/dL
same,TBIL,3 h,0.5 mg/dL
same,TC,3 h,71.4 mg/dL
same,TG,3 h,71.4 mg/dL
same,TP,3 h,5.3 g/dL
same,gamma-GTP,3 h,1.2 IU/L
same,TERMINAL_BW,6 h,214.2 g
same,APTT,6 h,18.2 s
same,Bas,6 h,0%
same,Eos,6 h,1%
same,Fbg,6 h,205.8 mg/dL
same,Hb,6 h,13 g/dL
same,Ht,6 h,38.8%
same,Lym,6 h,79%
same,MCH,6 h,21.9 pg
same,MCHC,6 h,33.6%
same,MCV,6 h,65.4 fL
same,Mono,6 h,3.6%
same,Neu,6 h,16.8%
same,PT,6 h,12.2 s
same,Plat,6 h,113.1 x10_4/uL
same,RBC,6 h,593.6 x10_4/ul
same,Ret,6 h,11.2%
same,WBC,6 h,70.8 x10_2/uL
same,KIDNEY_L,6 h,0.9 g
same,KIDNEY_R,6 h,1 g
same,KIDNEY_TOTAL,6 h,1.9 g
same,LIVER,6 h,9.4 g
same,A/G,6 h,2.1
same,ALP,6 h,980.4 IU/L
same,ALT,6 h,39.6 IU/L
same,AST,6 h,64.4 IU/L
same,BUN,6 h,14.6 mg/dL
same,CRE,6 h,0.6 mg/dL
same,Ca,6 h,10.4 mg/dL
same,Cl,6 h,102.8 meq/L
same,DBIL,6 h,0.052 mg/dL
same,GLC,6 h,235.6 mg/dL
same,IP,6 h,10.3 mg/dL
same,K,6 h,4.5 meq/L
same,LDH,6 h,89 IU/L
same,Na,6 h,140.2 meq/L
same,PL,6 h,129.4 mg/dL
same,RALB,6 h,3.6 g/dL
same,TBIL,6 h,0.4 mg/dL
same,TC,6 h,73.8 mg/dL
same,TG,6 h,36 mg/dL
same,TP,6 h,5.2 g/dL
same,gamma-GTP,6 h,1.4 IU/L
same,TERMINAL_BW,9 h,215.8 g
same,APTT,9 h,18.7 s
same,Bas,9 h,0%
same,Eos,9 h,0.6%
same,Fbg,9 h,208.2 mg/dL
same,Hb,9 h,13.5 g/dL
same,Ht,9 h,40.2%
same,Lym,9 h,80%
same,MCH,9 h,22.1 pg
same,MCHC,9 h,33.6%
same,MCV,9 h,65.7 fL
same,Mono,9 h,6.8%
same,Neu,9 h,12.8%
same,PT,9 h,12.2 s
same,Plat,9 h,114.6 x10_4/uL
same,RBC,9 h,612 x10_4/ul
same,Ret,9 h,9.3%
same,WBC,9 h,88.9 x10_2/uL
same,KIDNEY_L,9 h,1 g
same,KIDNEY_R,9 h,1 g
same,KIDNEY_TOTAL,9 h,2 g
same,LIVER,9 h,9 g
same,A/G,9 h,2.1
same,ALP,9 h,976.4 IU/L
same,ALT,9 h,38.2 IU/L
same,AST,9 h,63 IU/L
same,BUN,9 h,17 mg/dL
same,CRE,9 h,0.6 mg/dL
same,Ca,9 h,10.5 mg/dL
same,Cl,9 h,103.8 meq/L
same,DBIL,9 h,0.098 mg/dL
same,GLC,9 h,214 mg/dL
same,IP,9 h,10.8 mg/dL
same,K,9 h,4.7 meq/L
same,LDH,9 h,107.6 IU/L
same,Na,9 h,141.8 meq/L
same,PL,9 h,139.2 mg/dL
same,RALB,9 h,3.7 g/dL
same,TBIL,9 h,0.2 mg/dL
same,TC,9 h,75.4 mg/dL
same,TG,9 h,77 mg/dL
same,TP,9 h,5.4 g/dL
same,gamma-GTP,9 h,1.4 IU/L
same,TERMINAL_BW,24 h,220.7 g
same,APTT,24 h,16.9 s
same,Bas,24 h,0%
same,Eos,24 h,0.6%
same,Fbg,24 h,200.8 mg/dL
same,Hb,24 h,13.4 g/dL
same,Ht,24 h,39.8%
same,Lym,24 h,81%
same,MCH,24 h,21.7 pg
same,MCHC,24 h,33.8%
same,MCV,24 h,64.4 fL
same,Mono,24 h,6%
same,Neu,24 h,12.6%
same,PT,24 h,12.1 s
same,Plat,24 h,120.3 x10_4/uL
same,RBC,24 h,618.2 x10_4/ul
same,Ret,24 h,9.6%
same,WBC,24 h,106.3 x10_2/uL
same,KIDNEY_L,24 h,1 g
same,KIDNEY_R,24 h,1 g
same,KIDNEY_TOTAL,24 h,2 g
same,LIVER,24 h,11.9 g
same,A/G,24 h,2.2
same,ALP,24 h,1044.4 IU/L
same,ALT,24 h,36.2 IU/L
same,AST,24 h,67.2 IU/L
same,BUN,24 h,17.8 mg/dL
same,CRE,24 h,0.6 mg/dL
same,Ca,24 h,10.7 mg/dL
same,Cl,24 h,104 meq/L
same,DBIL,24 h,0.008 mg/dL
same,GLC,24 h,184.8 mg/dL
same,IP,24 h,8.3 mg/dL
same,K,24 h,4.6 meq/L
same,LDH,24 h,89.2 IU/L
same,Na,24 h,141.2 meq/L
same,PL,24 h,120.2 mg/dL
same,RALB,24 h,3.9 g/dL
same,TBIL,24 h,0.3 mg/dL
same,TC,24 h,66.6 mg/dL
same,TG,24 h,72 mg/dL
same,TP,24 h,5.7 g/dL
same,gamma-GTP,24 h,1.4 IU/L
